Data: ChEMBL document CHEMBL4808193, “[11]-Chaetoglobosins from Pseudeurotium bakeri Induce G2/M Cell Cycle Arrest and Apoptosis in Human Cancer Cells” (J Nat Prod, 2021)

Key:
HeLa = assay: Cytotoxicity against human HeLa cells assessed as reduction in cell viability by MTT assay; assay type: functional, cell-based
A-427 [1] = assay: Induction of apoptosis in human A-427 cells assessed as late apoptotic cells at 2.5 uM measured after 24 hrs by Annexin V-FITC/propidium iodide staining based flow cytometric analysis (reference value: 2.06%); assay type: functional
A-427 [2] = assay: Induction of apoptosis in human A-427 cells assessed as early apoptotic cells at 2.5 uM measured after 24 hrs by Annexin V-FITC/propidium iodide staining based flow cytometric analysis (reference value: 6.58%); assay type: functional
HT-29 = assay: Cytotoxicity against human HT-29 cells assessed as reduction in cell viability by MTT assay; assay type: functional, cell-based
A-427 [3] = assay: Induction of apoptosis in human A-427 cells assessed as early apoptotic cells at 10 uM measured after 24 hrs by Annexin V-FITC/propidium iodide staining based flow cytometric analysis (reference value: 6.58%); assay type: functional
A-427 [4] = assay: Cell cycle arrest in human A-427 cells assessed as accumulation at S phase at 10 uM measured after 24 hrs by PI staining based flow cytometry (reference value: 33.14%); assay type: functional
HepG2 = assay: Cytotoxicity against human HepG2 cells assessed as reduction in cell viability by MTT assay; assay type: functional, cell-based
L02 = assay: Cytotoxicity against human L02 cells assessed as reduction in cell viability by MTT assay; assay type: cell-based
MCF7 [5] = assay: Induction of apoptosis in human MCF7 cells assessed as early apoptotic cells at 5 uM measured after 24 hrs by Annexin V-FITC/propidium iodide staining based flow cytometric analysis (reference value: 1.49%); assay type: functional
A-427 [6] = assay: Cytotoxicity against human A-427 cells assessed as reduction in cell viability by MTT assay; assay type: functional, cell-based
A-427 [7] = assay: Induction of apoptosis in human A-427 cells assessed as early apoptotic cells at 5 uM measured after 24 hrs by Annexin V-FITC/propidium iodide staining based flow cytometric analysis (reference value: 6.58%); assay type: functional
A-427 [8] = assay: Cell cycle arrest in human A-427 cells assessed as accumulation at G2/M phase at 5 uM measured after 24 hrs by PI staining based flow cytometry (reference value: 18.80%); assay type: functional
MCF7 [9] = assay: Cell cycle arrest in human MCF7 cells assessed as accumulation at G2/M phase at 3 uM measured after 24 hrs by PI staining based flow cytometry (reference value: 15.28%); assay type: functional
MCF7 [10] = assay: Cell cycle arrest in human MCF7 cells assessed as accumulation at S phase at 3 uM measured after 24 hrs by PI staining based flow cytometry (reference value: 34.14%; assay type: functional
MCF7 [11] = assay: Cell cycle arrest in human MCF7 cells assessed as accumulation at G0/G1 phase at 4.5 uM measured after 24 hrs by PI staining based flow cytometry (reference value: 50.58%); assay type: functional
MCF7 [12] = assay: Cell cycle arrest in human MCF7 cells assessed as accumulation at G2/M phase at 4.5 uM measured after 24 hrs by PI staining based flow cytometry (reference value: 15.28%); assay type: functional
MCF7 [13] = assay: Induction of apoptosis in human MCF7 cells assessed as late apoptotic cells at 10 uM measured after 24 hrs by Annexin V-FITC/propidium iodide staining based flow cytometric analysis (reference value: 0.38%); assay type: functional
MCF7 [14] = assay: Cell cycle arrest in human MCF7 cells assessed as accumulation at S phase at 1.5 uM measured after 24 hrs by PI staining based flow cytometry (reference value: 34.14%); assay type: functional
MCF7 [15] = assay: Cell cycle arrest in human MCF7 cells assessed as accumulation at G2/M phase at 1.5 uM measured after 24 hrs by PI staining based flow cytometry (reference value: 15.28%); assay type: functional
A-427 [16] = assay: Cell cycle arrest in human A-427 cells assessed as accumulation at G0/G1 phase at 5 uM measured after 24 hrs by PI staining based flow cytometry (reference value: 48.06%); assay type: functional
A-427 [17] = assay: Cell cycle arrest in human A-427 cells assessed as accumulation at G0/G1 phase at 2.5 uM measured after 24 hrs by PI staining based flow cytometry (reference value: 48.06%); assay type: functional
A-427 [18] = assay: Induction of apoptosis in human A-427 cells assessed as late apoptotic cells at 10 uM measured after 24 hrs by Annexin V-FITC/propidium iodide staining based flow cytometric analysis (reference value: 2.06%); assay type: functional
MCF7 [19] = assay: Induction of apoptosis in human MCF7 cells assessed as late apoptotic cells at 15 uM measured after 24 hrs by Annexin V-FITC/propidium iodide staining based flow cytometric analysis (reference value: 0.38%); assay type: functional
MCF7 [20] = assay: Cytotoxicity against human MCF7 cells assessed as reduction in cell viability by MTT assay; assay type: functional, cell-based
A-427 [21] = assay: Cell cycle arrest in human A-427 cells assessed as accumulation at S phase at 2.5 uM measured after 24 hrs by PI staining based flow cytometry (reference value: 33.14%); assay type: functional
MCF7 [22] = assay: Induction of apoptosis in human MCF7 cells assessed as early apoptotic cells at 10 uM measured after 24 hrs by Annexin V-FITC/propidium iodide staining based flow cytometric analysis (reference value: 1.49%); assay type: functional
HCT-116 = assay: Cytotoxicity against human HCT-116 cells assessed as reduction in cell viability by MTT assay; assay type: functional, cell-based
A-427 [23] = assay: Cell cycle arrest in human A-427 cells assessed as accumulation at G2/M phase at 2.5 uM measured after 24 hrs by PI staining based flow cytometry (reference value: 18.80%); assay type: functional
A-427 [24] = assay: Cell cycle arrest in human A-427 cells assessed as accumulation at S phase at 5 uM measured after 24 hrs by PI staining based flow cytometry (reference value: 33.14%); assay type: functional
A549 = assay: Cytotoxicity against human A549 cells assessed as reduction in cell viability by MTT assay; assay type: functional, cell-based
A-427 [25] = assay: Cell cycle arrest in human A-427 cells assessed as accumulation at G0/G1 phase at 10 uM measured after 24 hrs by PI staining based flow cytometry (reference value: 48.06%); assay type: functional
MCF7 [26] = assay: Cell cycle arrest in human MCF7 cells assessed as accumulation at G0/G1 phase at 1.5 uM measured after 24 hrs by PI staining based flow cytometry (reference value: 50.58%); assay type: functional
MCF7 [27] = assay: Cell cycle arrest in human MCF7 cells assessed as accumulation at S phase at 4.5 uM measured after 24 hrs by PI staining based flow cytometry (reference value: 34.14%); assay type: functional
MCF7 [28] = assay: Cell cycle arrest in human MCF7 cells assessed as accumulation at G0/G1 phase at 3 uM measured after 24 hrs by PI staining based flow cytometry (reference value: 50.58%); assay type: functional
MCF7 [29] = assay: Induction of apoptosis in human MCF7 cells assessed as early apoptotic cells at 15 uM measured after 24 hrs by Annexin V-FITC/propidium iodide staining based flow cytometric analysis (reference value: 1.49%); assay type: functional
A-427 [30] = assay: Induction of apoptosis in human A-427 cells assessed as late apoptotic cells at 5 uM measured after 24 hrs by Annexin V-FITC/propidium iodide staining based flow cytometric analysis (reference value: 2.06%); assay type: functional
MCF7 [31] = assay: Induction of apoptosis in human MCF7 cells assessed as late apoptotic cells at 5 uM measured after 24 hrs by Annexin V-FITC/propidium iodide staining based flow cytometric analysis (reference value: 0.38%); assay type: functional
A-427 [32] = assay: Cell cycle arrest in human A-427 cells assessed as accumulation at G2/M phase at 10 uM measured after 24 hrs by PI staining based flow cytometry (reference value: 18.80%); assay type: functional

**Q.** Which IC50 (HeLa) does the source give for `CC1=C(C)[C@H]2[C@H](Cc3c[nH]c4ccccc34)NC(=O)[C@]23C(=O)/C=C\CC[C@@H](C)C/C=C/[C@H]3[C@@H]1O` here?
**A.** The IC50 was 10.1 µM.

**Q.** And the Activity (A-427 [1])?
**A.** The Activity was 32.65%.

**Q.** What about the Activity (A-427 [2]) of the same compound?
**A.** Its Activity is 18.24%.

**Q.** What about the IC50 (HT-29) of the same compound?
**A.** Its IC50 is 8.8 µM.

**Q.** What about the Activity (A-427 [3]) of the same compound?
**A.** Its Activity is 31.16%.

**Q.** And the Activity (A-427 [4])?
**A.** Its Activity is 22.03%.

**Q.** And the IC50 (HepG2)?
**A.** The IC50 was 10.7 µM.

**Q.** And the IC50 (L02)?
**A.** The IC50 was 41.8 µM.

**Q.** What about the Activity (MCF7 [5]) of the same compound?
**A.** Its Activity is 10.35%.

**Q.** And the IC50 (A-427 [6])?
**A.** Its IC50 is 7.5 µM.

**Q.** What about the Activity (A-427 [7]) of the same compound?
**A.** The Activity was 20.64%.

**Q.** What about the Activity (A-427 [8]) of the same compound?
**A.** Its Activity is 37.05%.

**Q.** And the Activity (MCF7 [9])?
**A.** Its Activity is 71.45%.

**Q.** And the Activity (MCF7 [10])?
**A.** Its Activity is 11.19%.

**Q.** What about the Activity (MCF7 [11]) of the same compound?
**A.** The Activity was 9.24%.

**Q.** What about the Activity (MCF7 [12]) of the same compound?
**A.** The Activity was 82.7%.

**Q.** What about the Activity (MCF7 [13]) of the same compound?
**A.** Its Activity is 15.06%.

**Q.** What about the Activity (MCF7 [14]) of the same compound?
**A.** Its Activity is 17.94%.

**Q.** And the Activity (MCF7 [15])?
**A.** The Activity was 58.41%.

**Q.** And the Activity (A-427 [16])?
**A.** The Activity was 41.36%.

**Q.** What about the Activity (A-427 [17]) of the same compound?
**A.** The Activity was 45.18%.

**Q.** What about the Activity (A-427 [18]) of the same compound?
**A.** Its Activity is 33.54%.

**Q.** What about the Activity (MCF7 [19]) of the same compound?
**A.** The Activity was 21.26%.

**Q.** And the IC50 (MCF7 [20])?
**A.** Its IC50 is 6.8 µM.

**Q.** And the Activity (A-427 [21])?
**A.** The Activity was 20.59%.

**Q.** What about the Activity (MCF7 [22]) of the same compound?
**A.** Its Activity is 11.17%.

**Q.** What about the IC50 (HCT-116) of the same compound?
**A.** Its IC50 is 11.2 µM.

**Q.** What about the Activity (A-427 [23]) of the same compound?
**A.** Its Activity is 34.23%.

**Q.** What about the Activity (A-427 [24]) of the same compound?
**A.** Its Activity is 21.59%.

**Q.** What about the IC50 (A549) of the same compound?
**A.** The IC50 was 6.9 µM.

**Q.** What about the Activity (A-427 [25]) of the same compound?
**A.** Its Activity is 35.56%.

**Q.** And the Activity (MCF7 [26])?
**A.** Its Activity is 23.65%.

**Q.** What about the Activity (MCF7 [27]) of the same compound?
**A.** Its Activity is 8.06%.

**Q.** What about the Activity (MCF7 [28]) of the same compound?
**A.** The Activity was 17.36%.

**Q.** And the Activity (MCF7 [29])?
**A.** The Activity was 12.83%.

**Q.** What about the Activity (A-427 [30]) of the same compound?
**A.** Its Activity is 33.06%.

**Q.** What about the Activity (MCF7 [31]) of the same compound?
**A.** The Activity was 11.69%.

**Q.** What about the Activity (A-427 [32]) of the same compound?
**A.** The Activity was 42.41%.
